Experimental findings from patent US12642857B2, “Degradation of AKT by conjugation of ATP-competitive AKT inhibitor GDC-0068 with E3 ligase ligands and methods of use” (DANA-FARBER CANCER INSTITUTE, INC., priority 2019, dated 2026) are described below.

Each structure is given as a SMILES string. “Also recorded” adds a separate entry of the source.

In assay [1] the target is T1, AKT1 (Homo sapiens, UniProt P31749).
T1 construct: purchased Life Technologies (Invitrogen)
In words: Z'-LYTE assay (AKT binding assay), AKT1. The following applies: 10-point dose response, Km ATP, read-out: Biochemical Binding AKT1. The procedure:
(§1) Z′-LYTE assays (catalog number PV3193, Invitrogen™) were conducted for AKT1, AKT2, AKT3, PKG1, S6K1, PKN1, βMSK2, and Haspin at Life Technologies™ in a 10-point dose response using Km ATP concentrations. LanthaScreen™ assays were conducted for RET (V804M) in a 10-point dose response at Life Technologies™.

Assay [2] deals with T2, AKT2 (Homo sapiens, UniProt P31751).
T2 construct: purchased Life Technologies (Invitrogen)
In words: Z'-LYTE assay (AKT binding assay), AKT2. The following applies: 10-point dose response, Km ATP, read-out: Biochemical Binding AKT2. The procedure: as §1

For assay [3], the target named is T3, AKT3 (Homo sapiens, UniProt Q9Y243).
T3 construct: purchased Life Technologies (Invitrogen)
In words: Z'-LYTE assay (AKT binding assay), AKT3. The following applies: 10-point dose response, Km ATP, read-out: Biochemical Binding AKT3. The procedure: as §1

In assay [4] the test system is AKT1, AKT2 and AKT3. In words: Immunoblot of AKT isoform degradation in MDA-MB-468 cells. The assay is classed as cell-based, human. The following applies: 24-hour treatment. The procedure:
(§2) MDA-MB-468 (human breast cancer cell line) cells were maintained in RPMI 1640 (Wisent Bioproducts) supplemented with 10% FBS (Thermo Fisher Scientific) and MCF10A (human breast epithelial cell line) cells were maintained in Dulbecco's modified Eagle's medium (DMEM)/Ham's F12 (Wisent Bioproducts) supplemented with 5% equine serum (Fisher), insulin (10 μg/ml) (Life Technologies), hydrocortisone (500 ng/ml) (Sigma-Aldrich®), epidermal growth factor (20 ng/ml) (R&D Systems), and cholera toxin (100 ng/ml) (List Biological Lab). MDA-MB-468 and MCF10A cells were seeded at 250,000 cells/mL and 200,000 cells/mL, respectively. The following day cells were treated with inventive bifunctional compounds. After 24 hours, cells were washed with phosphate-buffered saline at 4° C. and lysed in radioimmunoprecipitation assay (RIPA) buffer (150 mM Tris-HCl, 150 mM NaCl, 0.5% (w/v) sodium deoxycholate, 1% (v/v) NP-40, pH 7.5) containing 0.1% (w/v) sodium dodecyl sulfate, 1 mM sodium pyrophosphate, 20 mM sodium fluoride, 50 nM calyculin, and 0.5% (v/v) protease inhibitor cocktail (Sigma-Aldrich®)). Cell extracts were precleared by centrifugation at 14,000 rpm for 10 minutes at 4° C. The Bio-Rad DC protein assay was used to assess protein concentration, and sample concentration was normalized using SDS sample buffer. […] Images were stored and analyzed using ImageStudio™ (LI-COR®) software. […]
(Immunoblotting shows a protein as a band on a membrane.)

Assay [5] concerns AKT1, AKT2 and AKT3. In words: Immunoblot of AKT isoform degradation in MCF10A cells. The assay is classed as cell-based, human. The following applies: 24-hour treatment. The procedure:
as §2

T2 sequence (P31751 whole entry): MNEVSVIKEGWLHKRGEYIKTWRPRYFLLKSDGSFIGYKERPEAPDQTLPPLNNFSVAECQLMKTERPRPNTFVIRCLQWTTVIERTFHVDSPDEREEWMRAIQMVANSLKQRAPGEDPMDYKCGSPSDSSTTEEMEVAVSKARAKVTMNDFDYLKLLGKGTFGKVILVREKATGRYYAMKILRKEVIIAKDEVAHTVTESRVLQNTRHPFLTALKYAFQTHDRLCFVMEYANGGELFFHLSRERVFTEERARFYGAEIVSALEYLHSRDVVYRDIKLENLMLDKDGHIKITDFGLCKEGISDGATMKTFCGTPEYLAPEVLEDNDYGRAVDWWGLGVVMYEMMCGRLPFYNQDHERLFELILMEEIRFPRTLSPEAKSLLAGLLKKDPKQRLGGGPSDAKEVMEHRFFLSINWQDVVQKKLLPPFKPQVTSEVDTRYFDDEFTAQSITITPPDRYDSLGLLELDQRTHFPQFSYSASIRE
T1 sequence (P31749 whole entry): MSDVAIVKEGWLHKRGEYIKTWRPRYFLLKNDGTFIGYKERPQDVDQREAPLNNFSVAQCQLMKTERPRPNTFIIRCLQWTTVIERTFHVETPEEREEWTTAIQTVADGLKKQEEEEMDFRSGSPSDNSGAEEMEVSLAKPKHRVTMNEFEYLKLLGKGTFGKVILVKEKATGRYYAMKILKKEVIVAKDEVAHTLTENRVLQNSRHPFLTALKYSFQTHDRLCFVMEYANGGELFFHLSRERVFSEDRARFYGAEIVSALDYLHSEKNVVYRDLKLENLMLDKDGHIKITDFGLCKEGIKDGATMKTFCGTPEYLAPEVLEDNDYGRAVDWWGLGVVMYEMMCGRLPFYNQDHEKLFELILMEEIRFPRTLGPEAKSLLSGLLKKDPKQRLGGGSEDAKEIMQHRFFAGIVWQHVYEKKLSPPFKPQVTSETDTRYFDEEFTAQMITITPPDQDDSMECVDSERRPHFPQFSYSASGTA
T3 sequence (Q9Y243 whole entry): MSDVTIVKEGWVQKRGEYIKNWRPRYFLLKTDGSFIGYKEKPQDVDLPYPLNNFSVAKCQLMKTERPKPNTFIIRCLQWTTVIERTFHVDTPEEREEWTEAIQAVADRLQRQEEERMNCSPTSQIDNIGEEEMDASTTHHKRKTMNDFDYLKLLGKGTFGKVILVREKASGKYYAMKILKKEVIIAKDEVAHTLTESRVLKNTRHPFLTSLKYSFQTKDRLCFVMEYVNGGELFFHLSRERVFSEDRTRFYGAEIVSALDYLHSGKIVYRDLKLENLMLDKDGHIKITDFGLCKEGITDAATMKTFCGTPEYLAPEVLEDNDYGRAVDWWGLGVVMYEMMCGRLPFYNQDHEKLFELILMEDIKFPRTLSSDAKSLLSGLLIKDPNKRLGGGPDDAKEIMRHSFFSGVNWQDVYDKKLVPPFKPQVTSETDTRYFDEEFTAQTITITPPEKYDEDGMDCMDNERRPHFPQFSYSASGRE

As to `C[C@@H]1C[C@@H](O)c2ncnc(N3CCN(C(=O)[C@H](CNCCCCCCCCNC(=O)COc4cccc5c4C(=O)N(C4CCC(=O)NC4=O)C5=O)c4ccc(Cl)cc4)CC3)c21` (stereo partly drawn) [Compound 3, N-(8-(((S)-2-(4-chlorophenyl)-3-(4-((5R,7R)-7-hydroxy-5-methyl-6,7-dihydro-5H-cyclopenta[d]pyrimidin-4-yl)piperazin-1-yl)-3-oxopropyl)amino)octyl)-2-((2-(2,6-dioxopiperidin-3-yl)-1,3-dioxoisoindolin-4-yl)oxy)acetamide], the IC50 worked out at 1.03 nM in assay [1], 4.04 nM in assay [2] and 1.23 nM in assay [3]. For the same compound, the “Degradation of AKT isoforms” value is given as “degraded in MDA-MB-468 cells in a dose-dependent manner; also recorded: degraded in MDA-MB-468 cells (FIG. 3)” in assay [4] and “degraded in MCF10A cells in a dose-dependent manner” in assay [5].
